System: MET1 cells
Assay: Intracellular ROS production in MET1 cells (DHE fluorescence)
Type: cell-based, human
Conditions: 5 µM
Procedure: MET1 cells were seeded at a density of 20,000 cells/cm² in 24-well plates. After 24 h, cells were treated with MB and AO diluted in culture medium at low concentrations (1.25 µM, 2.5 µM and 5 µM). The medium culture was replaced by the prepared samples. Plates were incubated for 24 h; then, cells were washed with medium, and DMEM without phenol red was added. The plates were submitted to 2.5 J/cm² irradiation under red light at 640 nm for MB and 457 nm blue light for AO. Dihydroethidium (DHE) was used to evaluate ROS production. For this assay, the medium was removed after irradiation, and 20 µM of DHE diluted in medium was added. The plate was incubated for 20 min, washed with medium and incubated 20 min with Hoechst 33342 (5 µg/mL), which was used to stain the cells’ nuclei. After removing the excess dye, culture medium was added, and the cells were immediately observed using a Nikon Ti-S epifluorescence microscope. Cells were examined using a 40 × objective in random areas of 4 different wells under the same treatment condition. Images were analyzed using ImageJ software, and the intensity was measured according to integrated density values of red fluorescence.

For `CN(C)c1ccc2cc3ccc(N(C)C)cc3nc2c1` [Acridine orange, acridine orange], the “increase in fluorescence (DHE, integrated density) vs irradiated control” value (457 nm irradiation 2.5 J/cm², vs irradiated control 0 µM) was “about 2.6 fold” and the “increase in fluorescence intensity (DHE, integrated density) vs non-irradiated control” value (non-irradiated, vs non-irradiated control 0 µM) was “about 1.8 fold”.

From paper PMC10054552, “Phototoxic Potential of Different DNA Intercalators for Skin Cancer Therapy: In Vitro Screening” (International Journal of Molecular Sciences, 2023)
